System: microbes of beef purge inoculum
Assay: Modified film test: total aerobic plate count after contact of inoculum with antimicrobial test film
Type: cell-based
Conditions: for Antimicrobial Performance vs. VLDPE Control (percent reduction in microbes), Amide wax alone Erucamide, Test 2: primary additive 10 wt % in Affinity PL 1280G1 C8-VLDPE containing 1664 ppm cis-13-docosenamide
Protocol: Each of the materials shown in Tables 1 and 2 was compounded into sealant resin, comprised of Affinity PL 1280G, a C8-VLDPE and films were prepared for microbial control testing. The primary additives were tested at 10 wt %. Secondary additives and Cis-13-docosenamide (sold under the trade name Erucamide) were tested as detailed in Table 3.
Test 2: Each of the primary antimicrobial materials in Table 1 was compounded at 10 wt % into sealant resin comprised of Affinity PL 1280G1, a C8-VLDPE containing 1664 ppm of cis-13-docosenamide and films were prepared for microbial control testing.
Tests 3-5: Each of the primary antimicrobial materials in Table 1 was compounded at 10% w/w into sealant resin comprised of Affinity PL 1280G, a C8-VLDPE and 2-3 wt % of the secondary antimicrobials (Table 2) or cis-13-docosenamide were added as detailed in Table 3 and films were prepared for microbial control testing.
Due to the limitations seen in the laboratory with the ISO 22196 test, a modified film test was developed. The test protocol was designed to simulate an actual package environment. […] “Purge” is the liquid that exudes from cut meat or poultry and collects freely in the package. This is typically found in larger packages. The purge liquid can be carefully removed from the packages and used for the following tests. For the tests conducted in this study, beef purge was used. The beef purge is a combination of water, fats, enzymes and meat proteins that drain from the meat. The purge also contains the same bacterial flora as that which contaminates the surface of the meat itself. Thus, this purge could include gram positive bacteria like Lactobacillus species, (Lactic Acid Bacteria), and Listeria species, as well as, gram negative bacteria like E. coli, Campylobacter or Salmonella species.
Antimicrobial films may contain the active ingredient extruded into the surface layer of the film, or coated onto the film. A test method was developed to provide a continuous, uniform coverage of a known amount of the inoculum on the test films.
A 1 inch by 3 inch “tape well” is created on the antimicrobial test film. The “tape well” is crafted by cutting a 1 inch by 3 inch section from a strip of 3 inch wide vinyl tape and applying the tape to the antimicrobial film surface. The test film is secured to a Lexan sheet for stability and handling.
To the well, 0.2 ml of an inoculum is added. The inoculums are either the meat purge or cultures of nutrient broth with E. coli (ATTC #4157 or ATTC #33876) added to the broth. The Escherichia coli is a gram-negative, facultative, anaerobic, rod-shaped, coliform bacterium.
A 1 inch by 3 inch strip of Cryovac brand D-955, a non-barrier film, is placed over the inoculum to provide complete wetting of the test film with the inoculum and to prevent desiccation of the inoculum. The high OTR properties of the D-955 allow growth of the inoculum trapped between the antimicrobial test film and the D-955 film.
Inoculated films are incubated at refrigerated conditions of 40° F. for both 1 and 5 days in a high humidity sealed pouch.
The inoculum is recovered from the well by both adding the inoculum wetted D-955 film over-layment to a distilled water test tube and by swabbing the test film surface twice and placing the swab in the same test tube.
The total aerobic plate count is enumerated using Aerobic Plate Count 3M Petri Film.
Results are reported as log10 CFU/g. The difference in counts between the sample and control is the “delta log CFU/g”. This is mathematically converted to a percent reduction=(1−10^(−delta log CFU/g))*100

[1] = 5 day test, beef purge inoculum, 40° F.

Structure (SMILES) | Antimicrobial Performance vs. VLDPE Control (percent reduction in microbes), Amide wax alone Erucamide, Test 2 [1] [%] | Antimicrobial Performance vs. VLDPE Control (percent reduction in microbes), None Control, Test 1 (primary additive 10 wt % in Affinity PL 1280G C8-VLDPE sealant film, no secondary additive, 5 day test, beef purge inoculum, 40° F.) [%] | Antimicrobial Performance vs. VLDPE Control (percent reduction in microbes), Cleanatis M1 @ 2%, Test 4 (primary additive 10 wt % in VLDPE film plus 2 wt % Cleanatis M1 (With Amide wax), 5 day test, beef purge inoculum, 40° F.) [%] | Antimicrobial Performance vs. VLDPE Control (percent reduction in microbes), Cleanatis M2 @2%, Test 5 (primary additive 10 wt % in VLDPE film plus 2 wt % Cleanatis M2 (With Amide wax), 5 day test, beef purge inoculum, 40° F.) [%] | Antimicrobial Performance vs. VLDPE Control (percent reduction in microbes), KANCOR CLS @ 2%, Test 3 (primary additive 10 wt % in VLDPE film plus 2 wt % Kancor OxiKan CLS (With Amide wax), 5 day test, beef purge inoculum, 40° F.) [%] | Percent Reduction in Microbes of Test Samples at Day 5 versus the "Additive Controls", None Control, Test 1 (primary additive 10 wt % in VLDPE film, control = VLDPE film, Day 5) [%] | Percent Reduction in Microbes of Test Samples at Day 5 versus the "Additive Controls", Amide wax Erucamide, Test 2 (primary additive 10 wt % in VLDPE with Erucamide, control = VLDPE + Erucamide film, Day 5) [%] | Percent Reduction in Microbes of Test Samples at Day 5 versus the "Additive Controls", Cleanatis M1 @ 2%, Test 4 (primary additive 10 wt % plus Cleanatis M1 2%, control = VLDPE + Cleanatis M1 film, Day 5) | Percent Reduction in Microbes of Test Samples at Day 5 versus the "Additive Controls", Cleanatis M2 @2%, Test 5 (primary additive 10 wt % plus Cleanatis M2 2%, control = VLDPE + Cleanatis M2 film, Day 5) | Percent Reduction in Microbes of Test Samples at Day 5 versus the "Additive Controls", KANCOR CLS @ 2%, Test 3 (primary additive 10 wt % plus KANCOR CLS 2%, control = VLDPE + KANCOR CLS film, Day 5) [%]
CCCCCCCC/C=C\CCCCCCCCCCCC(N)=O [Erucamide, Cis-13-docosenamide] | 0 |  |  |  |  |  |  |  |  | 
C[C@H](O)C(=O)[O-].[Na+] [Purasal S98, Sodium L-lactate] | 0 | 0 | 8.8 | 64.5187 | 92.0567 | 0 | 0 | Growth | Growth | 22.3735

Reference: patent publication US20220363848A1, “ANTIMICROBIAL MULTILAYER FILM” (Cryovac, LLC, priority 2019, published 2022)
